Calls of active or inactive are those of the source.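 How the source made its calls: active means AC50 no more than ten times the top concentration tested, that is within one log above it; inconclusive means flat curve fit with activity between 30% and 70%, or invalid poor fit; inactive means AC50 beyond ten times the top tested dose.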
Tested on: S. cerevisiae Mot1-301 ts growth rescue, BacTiter-Glo ATP luminescence
Experiment: restored Mot1-301 yeast growth at 38.5C – whole organism, S. cerevisiae, Mot1-301 ts mutant, luminescence, dose retest, SUMOylation pathway inhibitor project, confirmation (AID 463204);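 further: growth at restrictive 38.5 degrees C of Mot1-301 OY566 strain; actives raise luminescence by restoring growth of the ts mutant at high temperature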

| Structure (SMILES) | AC50 |
| --- | --- |
| CN(Cc1ccccc1)c1ccc(S(=O)(=O)N2CCC(C(=O)O)CC2)cc1[N+](=O)[O-] | > 42 µM (inactive) |
| CC(C)(C)c1ccc(CN(Cc2ccccc2)C(c2ccccn2)c2nnnn2C(C)(C)C)cc1 (stereo not drawn) | > 42 µM (inactive) |
| Cc1c(O)ccc(C(=O)CN2C(=O)c3ccccc3C2=O)c1O | > 42 µM (inactive) |
| O=C(CN1CCN(Cc2ccc(Cl)cc2)CC1)N/N=C/c1ccncc1 | > 42 µM (inactive) |
| O=C(O)c1c(C(=O)O)c(-c2ccc(F)cc2)n2c1CCC2 | > 42 µM (inactive) |
| COc1ccc(N2CCN(C(=O)CNC(=O)Cc3ccc(Cl)cc3)CC2)cc1 | > 42 µM (inactive) |
| CCN1C(=NCCCCO)N[C@@H](c2cccc(C(F)(F)F)c2)C(C(=O)OC)=C1C | > 42 µM (inactive) |
| Cc1ccc(NC2c3ncccc3C(=O)N2C2CCCCC2)cc1C (stereo not drawn) | 32.5 µM |
| O=C(CS(=O)c1ccc(C(F)(F)F)cc1[N+](=O)[O-])Oc1ccc(Cl)cc1 (stereo not drawn) | 1.47 µM |
| O=S(=O)(O)c1ccc(N=NNc2ccc(Br)cc2)cc1 | > 42 µM (inactive) |
| CSc1cccc(N2C(=O)C3CCCN3C2=S)c1 (stereo not drawn) | > 42 µM (inactive) |
| CC(C)N(C(=S)Nc1cccc(S(=O)(=O)N(C)C)c1)c1ccccc1 | > 42 µM (inactive) |
| CCN(CC)CCCNC(=O)C1c2ccccc2C(=O)N(CCOC)C1c1ccc(F)cc1 (stereo not drawn) | > 21 µM (inactive) |
| COc1ccccc1N1CCN(CCN2C(=O)C3CCCCN3C2=O)CC1 (stereo not drawn) | > 42 µM (inactive) |
| NC1=NC(=Nc2ccc(S(N)(=O)=O)cc2)c2ccccc21 | > 21 µM (inactive) |
| Cc1ccc(S(=O)(=O)N2CCOCC2)cc1NC(=O)COC(=O)CCC(=O)c1cccs1 | > 42 µM (inactive) |
| N#Cc1cc2c(nc1SC1CCCCC1O)CCCC2 (stereo not drawn) | > 42 µM (inactive) |
| O=C(Nc1cccc(Cl)c1)OCc1cncs1 | > 42 µM (inactive) |
| O=C1NC(=O)C(=Cc2ccc(N3CCOCC3)cc2)C(=O)N1 | > 42 µM (inactive) |
| CCOC(=O)c1sc2ncn(C(CC)C(=O)OCC)c(=O)c2c1C (stereo not drawn) | > 42 µM (inactive) |
| CCN(CC)c1ccc2c(C)c(CN3CCOCC3)c(=O)oc2c1 | > 42 µM (inactive) |
| Nc1nc(-c2ccc(Cl)cc2)nc(-c2ccc(Cl)cc2)n1 | > 42 µM (inactive) |
| CCCNCc1cc(OCC)c(OCC(N)=O)cc1Br | > 42 µM (inactive) |
| Cc1cc(C)cc(OC(=O)CS(=O)c2ccc(C(F)(F)F)cc2[N+](=O)[O-])c1 (stereo not drawn) | 3.48 µM |
| Cc1cccc(NC(=S)NC(=O)/C=C/c2ccco2)c1 | > 42 µM (inactive) |
| O=C(Nc1ccc(OC(F)(F)F)cc1)c1ccc2ccccc2n1 | > 42 µM (inactive) |

| Structure (SMILES) | AC50 |
| --- | --- |
| COc1ccc(NS(=O)(=O)c2cccc(C(=O)NCCCn3ccnc3)c2)cc1 | > 21 µM (inactive) |
| Cc1noc(C)c1S(=O)(=O)N1CCCC(C(=O)NCC2CCCO2)C1 (stereo not drawn) | > 42 µM (inactive) |
| COC(=O)c1sc2ccccc2c1NC(=O)c1ccc(S(=O)(=O)N2CCCC(C)C2)cc1 (stereo not drawn) | > 42 µM (inactive) |
| Cn1c(=O)c2c(ncn2CC(=O)N2CCCCCC2)n(C)c1=O | > 42 µM (inactive) |
| CCN(CC)c1ccc(Nc2cc3n(c(=O)n2)CCc2cc(OC)c(OC)cc2-3)cc1 | > 42 µM (inactive) |
| CCC1CCCCN1C(=O)CSc1nnc(CNC(=O)c2ccco2)o1 (stereo not drawn) | > 42 µM (inactive) |
| C/C(=C\C(=O)N1CCc2ccccc21)C(=O)O | > 42 µM (inactive) |
| OC(COCc1cccs1)CN1CCCCCC1 (stereo not drawn) | > 42 µM (inactive) |
| COc1ccccc1C1NC(=O)CS1 (stereo not drawn) | > 42 µM (inactive) |
| Cc1ccc(S(=O)(=O)N2[C@@H](c3ccc(Br)cc3)C(C(=O)O)=C[C@H]2CC2CCCC2)cc1 | 3.51 µM |
| Cc1cnc(NC(=O)CN2CCN(c3ccccc3F)CC2)s1 | > 42 µM (inactive) |
| Cc1ccc(N/N=C2/CCCNC2=O)cc1 | > 42 µM (inactive) |
| CCOc1ccc(S(=O)(=O)N2CCN(C(=O)CN3C(=O)NC4(CCCC4)C3=O)CC2)cc1 | > 42 µM (inactive) |
| CCOC(=O)COc1nc(-c2ccc(C)cc2)cc(-c2ccco2)c1C#N | > 42 µM (inactive) |
| COc1ccccc1N(CC(=O)NCC1CCCO1)C(=O)CCC(=O)Nc1cc(C)on1 (stereo not drawn) | > 42 µM (inactive) |
| O=C(CCl)N(Cc1cc(=O)[nH]c2ccccc12)c1ccccc1 | > 42 µM (inactive) |
| COCCCNC(=O)c1cc(C(=O)c2c(-c3c(Cl)cccc3Cl)noc2C)c[nH]1 | > 42 µM (inactive) |
| COc1ccc(NC(=O)Nc2ccc(OC)cc2)cc1 | > 42 µM (inactive) |
| CC(C)C1OC2(C)OC(=N)C1(C#N)C(C#N)(C#N)C2c1ccccc1 (stereo not drawn) | > 42 µM (inactive) |
| CC1CCN(CCCCOc2ccc(Cl)cc2)CC1 | > 42 µM (inactive) |
| CC[n+]1c(/C=C/N(C)c2ccccc2)n(-c2ccccc2)c2ccc(-c3nc4ccccc4s3)cc21 | 19.6 µM |
| O=C1C2C(c3ccccc3)CC=CC2[C@H](c2ccc3ccccc3c2)N1Cc1ccccc1 (stereo partly drawn) | 11.3 µM |
| COC(=O)c1ccccc1NC(=O)CSc1nnnn1CC(=O)O | > 42 µM (inactive) |
| COc1ccc(C2C3=C(CC(C)(C)CC3=O)Nc3n[nH]c(C)c32)cc1 (stereo not drawn) | > 42 µM (inactive) |
| CC(C)c1ccc(C2C(C(=O)c3ccco3)=C(O)C(=O)N2CCN2CCOCC2)cc1 (stereo not drawn) | > 42 µM (inactive) |
| O=C(COc1cccc2cccnc12)N1CCc2ccccc21 | > 42 µM (inactive) |

| Structure (SMILES) | AC50 |
| --- | --- |
| O=C(c1cccnc1)N1CCCC(Nc2ccc(F)cc2)C1 (stereo not drawn) | > 42 µM (inactive) |
| CN1C(=O)/C(=C/c2ccc(OCc3ccccc3F)cc2)NC1=S | > 42 µM (inactive) |
| COc1cc(O)oc1C=Nc1ccc(C(=O)O)cc1 | > 42 µM (inactive) |
| O=C(c1cccs1)N(C(=O)c1cccs1)c1ccc(Br)cn1 | 1.35 µM |
| Cc1cc(C(=O)NNC(=O)c2ccc(C)s2)c(C)o1 | > 42 µM (inactive) |
| CCOC(=O)CNC(=O)c1cccnc1 | > 42 µM (inactive) |
| COc1ccc(C2=NOC(Cn3nc(C(=O)NCc4cccs4)cc3-c3ccccc3)C2)cc1 (stereo not drawn) | > 42 µM (inactive) |
| Cc1ccc2c(C)c(C(=O)N(C)C(C)c3ccncn3)oc2c1C (stereo not drawn) | > 42 µM (inactive) |
| COc1cc2ccccc2cc1C(=O)Nc1ccc(CN2CCOCC2)cc1 | > 42 µM (inactive) |
| C/C(O)=C(\N=Nc1cc(C)ccc1O)C(N)=O | > 42 µM (inactive) |
| O=C(O)Cc1sc(Nc2ccccc2)nc1-c1cccs1 | > 42 µM (inactive) |
| O=Cc1ccccc1OCCN1CCCC1=O | > 42 µM (inactive) |
| Cc1cccc(C)c1NS(=O)(=O)c1ccc(OCCNS(C)(=O)=O)cc1 | > 42 µM (inactive) |
| COc1cccc(C(=O)NCc2ccc(-c3nc4ccccc4s3)cc2)c1 | > 42 µM (inactive) |
| COc1ccc(CC(=O)NCCN2CCOCC2)cc1 | > 42 µM (inactive) |
| COc1cc2c(=O)n(CCC(=O)NCC3CCCO3)c(=O)n(CC(=O)Nc3ccccc3C)c2cc1OC (stereo not drawn) | > 42 µM (inactive) |
| CN(CP(=O)(O)C(O)c1ccccc1)S(C)(=O)=O (stereo not drawn) | > 42 µM (inactive) |
| Oc1ccccc1-c1cc(C(F)(F)C(F)F)[nH]n1 | > 42 µM (inactive) |
| CN1C(=O)C(=Cc2cn(CC(=O)N3CCCC3)c3ccccc23)C(=O)N(C)C1=O | > 42 µM (inactive) |
| Cn1cc(C(=O)N2CCCC(Nc3ccc(F)cc3)C2)c2ccccc21 (stereo not drawn) | > 42 µM (inactive) |
| Cc1ccc(C(=O)N/C(=C\c2cccs2)C(=O)NCc2ccncc2)cc1 | > 42 µM (inactive) |
| O=c1c2ccccc2ncn1Cc1ccc2c(c1)OCO2 | > 42 µM (inactive) |
| Clc1cc(Br)ccc1OCCOCCN1CCOCC1 | > 42 µM (inactive) |
| COC(=O)C1=C(C)NC(C)=C([N+](=O)[O-])C1c1ccccc1C(F)(F)F (stereo not drawn) | > 42 µM (inactive) |
| Cc1cc(N2CCN(C)CC2)nc2ccc(NC(=S)N3CCC4(CC3)OCCO4)cc12 | > 42 µM (inactive) |
| Cc1ccccc1-c1nnnn1C1CCS(=O)(=O)C1 (stereo not drawn) | > 42 µM (inactive) |

| Structure (SMILES) | AC50 |
| --- | --- |
| COc1ccccc1CNC(=O)C1CCC(=O)N1C(C)C (stereo not drawn) | > 42 µM (inactive) |
| Cn1c(SCC(=O)Nc2nnc(-c3ccccc3)o2)nnc1C1CC1 | > 42 µM (inactive) |
| COc1cc(S(=O)(=O)NC2CCCC2)c(OC)cc1C | > 42 µM (inactive) |
| c1ccc2[nH]c(CSc3nccs3)nc2c1 | > 42 µM (inactive) |
| O=C(c1cc(-c2ccc(Cl)c(Cl)c2)on1)N1CCN(c2ccccc2)CC1 | > 42 µM (inactive) |
| Cc1c(NC(=O)c2ccc(N(C)S(C)(=O)=O)cc2)c(=O)n(-c2ccccc2)n1C | > 42 µM (inactive) |
| Cc1ccc(NC(=O)CC2CS(=O)(=O)CC2CC(=O)Nc2ccc(C)c(C)c2)cc1C (stereo not drawn) | > 42 µM (inactive) |
| Cc1cccc(NC(=S)NCc2ccco2)c1C | > 42 µM (inactive) |
| O=C1c2nccnc2C(=O)N1c1ccc(C(F)(F)F)cc1 | > 42 µM (inactive) |
| O=C1NC(=O)N(Cc2ccccc2)C1=O | > 42 µM (inactive) |
| CCCCCNC(=O)c1ccc2c(=O)n(CC3CCCO3)c(=O)[nH]c2c1 (stereo not drawn) | > 42 µM (inactive) |
| CS(=O)(=O)N(CC(=O)N1CCCC1)c1cccc(Cl)c1Cl | > 42 µM (inactive) |
| Cc1nn(C)c(C)c1-c1c(C#N)c(N)nc2c1CCCCCC2 | 16.9 µM |
| CCN(CC)C(=O)Cn1cc(S(=O)(=O)CC(=O)NCCc2ccc(OC)c(OC)c2)c2ccccc21 | > 42 µM (inactive) |
| COc1ccccc1CNCc1cc(OC)c(OC)c(OC)c1 | > 42 µM (inactive) |
| Clc1ccc(CONc2ncnc3nonc23)c(Cl)c1 | 5.49 µM |
| O=C(COc1ccc(-n2cnnn2)cc1)NCCc1ccc(F)cc1 | > 42 µM (inactive) |
| O=C(O)CCC(=O)Nc1cccc(C(=O)Nc2ccc(Br)cc2)c1 | > 42 µM (inactive) |
| C=CCNC(=O)c1cc(-c2cccnc2)nc2ccccc12 | > 42 µM (inactive) |
| CC(C)NC(=O)CCCc1cn(C)c2ccccc12 | > 42 µM (inactive) |
| Fc1ccc(-c2n[nH]c(=S)n2CC2CCCO2)cc1 (stereo not drawn) | > 42 µM (inactive) |
| O=C(OCC(=O)N1CCN(Cc2ccccc2)CC1)c1ccc(Cl)cc1 | > 42 µM (inactive) |
| COc1ccc(NC(=O)CC(C)C)c(OC)c1 | > 42 µM (inactive) |
| COC(=O)c1ccncc1C(=O)Nc1ccc(Oc2ncc(C(F)(F)F)cc2Cl)cc1 | > 42 µM (inactive) |
| Cc1ccc(C(=O)NCCCNC(=O)c2ccc(C)nc2)cc1 | > 42 µM (inactive) |
